Measured values: US12077610B2, “Peptides and other agents for treating pain and increasing pain sensitivity” (The Research Foundation for The State University of New York, priority 2017, dated 2024)
Non-standard residues stand in square brackets, D forms with d. No end group written: not given here. *: point of attachment. pT = C[C@@H](OP(=O)(O)O)[C@H](N)C(=O)O; Myristoyl = CCCCCCCCCCCCCC(=O)*

Experiments:
Slack KNa channel = experiment: Surface biotinylation of Slack channel in cultured DRG neurons; assay type: cell-based, rat; conditions: 24 hrs after PDZ peptide incubation, vs scrambled peptide B
Protocol: (§1) Western Blot Analysis—Total proteins were collected from transfected CHO cells, spinal cord and DRG. Tissue was homogenized in RIPA buffer supplemented in protease inhibitor cocktail (Sigma). Immunoblotting was performed as previously described. Briefly, proteins were separated on 4-15% Mini-PROTEAN TGX Precast Gel (Bio-Rad) and transferred to a 0.45 μm nitrocellulose membrane (BioRad). Membranes were probed overnight at 4° C. with antibodies against Slack anti-mouse (1:500; NeuroMab), rabbit anti-β-Actin (1:500; Millipore), rabbit anti-Magi-1 (1:100; Abcam), mouse anti-Magi-1 (1:100; Novus Biochemical), mouse anti-NaV1.8 (1:200; NeuroMab), mouse anti-NaV1.7 (1:200; NeuroMab), mouse anti-Flag (1:500; Sigma) in 5% milk prepared in 1×Tris-buffered saline tween (TBST). On the following day, the membrane was washed three times for five minutes in 1×TBST before being incubated for 1 hour at room temperature in Anti-mouse or Anti-rabbit horseradish peroxidase conjugate (1:5000; Promega) and 0.1% BSA prepared in 1×PBS. The membrane was again washed 3 times for 5 minutes before being developed and imaged. Bands were visualized with enhanced chemiluminescence (Thermo Scientific) and quantified with Image J Software (NIH). Each experiment was repeated at least three times.
(§2) Surface Protein Biotinylation—Plasma membrane protein expression was detected using a protein biotinylation assay. […]

DRG neurons = experiment: Current-clamp action potential firing in cultured DRG neurons; assay type: cell-based, rat
Protocol: (§3) Primary DRG neuronal cultures—Timed-pregnant Sprague-Dawley rats (Harlan, Indianapolis, Ind.) were used for culturing neurons. On the day of the dissection, rats were euthanized by CO2 asphyxiation and E15 embryos were extracted. DRG neurons were dissected from the embryos and enzymatically digested with Trypsin (2.5 mg/ml) at 37° C. for 45 min, followed by dissociation and plating. DRG neurons were plated onto poly-D-lysine (Sigma; 100 μg/ml) and laminin (Invitrogen; 3 μg/ml) coated coverslips. Neurons were maintained at 37° C. in a 7% CO2 humidified incubator in serum-free medium, comprised of the trophic factors N2 (Gemini Bio products; 1%), I-Glutamine (Invitrogen; 200 sg/ml), and Nerve Growth Factor (NGF) (Harlan; 100 ng/ml; essential for embryonic neuronal survival) in 50% DMEM and 50% F-12. The reliance of embryonic DRG neurons on NGF selects for the small-diameter population that is thought to underlie nociception and thermoception. Two successive days after DRG dissection, DRG neurons were cultured in C2 media containing the anti-mitotic agent cytosine β-d-arabinofuranoside hydrochloride (Sigma; 3 μM). This was followed by two days of recovery were neurons received regular serum free media before neurons were used for experiments. All subsequent experiments using embryonic cultures were performed on days 5-10 of neuronal culture.
Electrophysiology—All data was acquired using the Axopatch 200B amplifier (Molecular Devices,) and Multiclamp-700B (Molecular Devices, Sunnyvale, Calif.), digitized and filtered at 5 kHz. Data acquisition was monitored and controlled using pClamp 10 (Molecular Devices). Whole-cell patch-clamp recordings were performed on cultured DRG neurons, and CHO cells transiently transfected with WT or mutated Slack with Magi-1. Glass electrodes were pulled using a vertical pipette puller (Narishige International USA, Amityville, NY) and fire polished to be of 5-8 MΩ resistance. Pipettes were filled with solution containing (in mM) 124 K-gluconate, 2 MgCl2, 13.2 NaCl, 1 EGTA, 10 HEPES, 4 Mg-ATP, and 0.3 Na-GTP at pH 7.2 for neuronal recordings, and with 32.5 mM KCl, 97.5 mM potassium gluconate, 5 mM EGTA and 10 mM HEPES (pH 7.2) for CHO cell Slack and Slick recordings. […] In voltage-clamp mode, macroscopic currents were recorded at voltages ranging from −120 to +120. […] The cell capacitance for CHO cells ranged from 10-15 pF and for cultured DRG neurons 20-25 pF recorded under these conditions. […] Firing frequency of individual neurons was assessed by measurement of repetitive discharge upon injecting of a supra-threshold stimulus of 400 pA for 1000 ms. […] For TTX-resistant INa, DRG neurons were recorded in a bath solution containing 250 nM TTX. DRG neurons were recorded at voltages ranging from −60 to +60 mV. […]

NaV1.7 = experiment: Surface biotinylation of NaV1.7 in cultured DRG neurons; assay type: cell-based, rat; conditions: peptide treatment 24 hrs
Protocol: as §1, §2

INa in DRG neurons = experiment: Whole-cell voltage-clamp recording of inward sodium current (INa); assay type: cell-based, rat; conditions: for INa (total / peak): 10 μM peptide, 24 hrs
Protocol: as §3, with “All subsequent experiments using embryonic cultures were performed on days 5-10 of neuronal culture.” left out
Electrophysiology—All data was acquired using the Axopatch 200B amplifier (Molecular Devices,) and Multiclamp-700B (Molecular Devices, Sunnyvale, Calif.), digitized and filtered at 5 kHz. Data acquisition was monitored and controlled using pClamp 10 (Molecular Devices). […] In voltage-clamp mode, macroscopic currents were recorded at voltages ranging from −120 to +120. […] The cell capacitance for CHO cells ranged from 10-15 pF and for cultured DRG neurons 20-25 pF recorded under these conditions. […] Firing frequency of individual neurons was assessed by measurement of repetitive discharge upon injecting of a supra-threshold stimulus of 400 pA for 1000 ms. […] For TTX-resistant INa, DRG neurons were recorded in a bath solution containing 250 nM TTX. DRG neurons were recorded at voltages ranging from −60 to +60 mV. […]

NaV1.8 = experiment: Surface biotinylation / Western blot of NaV1.8 in cultured DRG neurons; assay type: cell-based, rat; conditions: 10 μM peptide, 24 hrs
Protocol: as §1
Surface Protein Biotinylation—Plasma membrane protein expression was detected using a protein biotinylation assay. Briefly, CHO cells or DRG neurons in six-well plates were used at 48 h after transient transfection of plasmid constructs or Magi-1 targeting siRNA respectively. For peptide incubation, neurons were incubated for 24 hrs. 160 μl of 10 mM Sulfo-NHS-SS-Biotin (Thermo Scientific) was added to each well and incubated at room temperature for 45 mins. The biotinylation reaction was terminated using 10 mM glycine (Quenching solution). Cells were harvested, washed in TBS and lysed on ice for 30 minutes in a lysis buffer/protease inhibitor cocktail. Lysates were collected and incubated with 500 uL of NeutrAvidin Agarose for 60 mins at room temperature with rotation. Following incubation, the column underwent centrifugation to collect the unbiotinylated protein. To elute the biotinylated proteins, sodium dodecyl sulfate (SDS) and dithiothreitol (DDT) were added to column membrane and incubated with rotation for 1 hour at room temperature. Biotinylated and unbiotinylated samples were probed for Slack or NaV1.8 and Actin protein by Western blot, as described above.

[1] = Formalin test of acute inflammatory pain; assay type: in vivo, mice; conditions: single i.pl. injection 100 μM, 20 μl, 24 hrs before 5% formalin; vs scrambled peptide
Source text: In vivo transfection with jetPEI®/Magi-1 shRNA plasmid DNA polyplexes—The spinal nerve injection protocol was adopted from and optimized for spinal nerve injection in mice. Three days after baseline thermal behavior was established, mice were anesthetized using isoflurane (induction: 4% and maintenance: 2%), and placed in a prone position. A 3-cm posterior longitudinal skin incision was made at the lumbar segment of the spine. The ipsilateral paraspinal muscles were carefully separated, using a pair of sterile toothpicks, from their attachments at the L4˜S1 levels of the vertebral column. 1.5 μl of PEI/shRNA plasmid DNA polyplexes at an N/P ratio of 6 were injected directly in the spinal nerve of the right hind paw slowly using a syringe connected to a 26-gauge needle (Hamilton 80030, Hamilton, Reno, NV). Magi-1 shRNAs and control shRNA were purchased from Santa Cruz Biotechnology (Santa Cruz, CA, USA) and were identical to the siRNA sequences described above. After injection, the needle was held at the spinal nerve for 1 min to prevent leakage. […]
Formalin test—Mice were habituated in the behavior room for 15 minutes, then 30 minutes in the formalin chamber before formalin injection. […] The total time spent lifting, the total number of licks, and the number of flinches were recorded in 5 minute intervals for 60 minutes. […]

Substance | Slack surface expression (Slack KNa channel) | neurons exhibiting repetitive firing (DRG neurons; PDZ peptide treated, suprathreshold stimulation 400 pA, 1000 ms) | surface (biotinylated) NaV1.7 membrane expression (NaV1.7) | INa (total / peak) (INa in DRG neurons) | decrease in INa density (INa in DRG neurons; PY peptide incubation, 6 hours) | NaV1.8 channels at the plasma membrane (surface expression) (NaV1.8) | total NaV1.8 protein (NaV1.8) | Phase II acute inflammatory pain (formalin) [1] | neurons with AP firing almost completely abolished (DRG neurons; 10 μM peptide, 24 hrs) | neurons with repetitive AP firing (DRG neurons; 10 μM peptide, 24 hrs, suprathreshold stimulation 400 pA, 1000 ms) | neurons firing one action potential followed by firing accommodation (DRG neurons; suprathreshold stimulation 400 pA, 1000 ms)
NPETRDETQL [PDZ peptide] | decreased | 11/21 | – | – | – | – | – | – | – | – | –
myristoyl-SATSFPPSYDSVTRG (Myristoyl-SATSFPPSYDSVTRG) [PY peptide] | – | – | unaltered | almost complete loss | 50% | substantial decrease | substantial decrease | significantly reduced | 10 of 11 | – | –
myristoyl-SATSFPPSYDSV[pT]RG (Myristoyl-SATSFPPSYDSV[pT]RG) [phospho-PY peptide] | – | – | unaltered | strongly increased | – | significant increase | a statistically significant increase in input levels of NaV1.8 protein over 24 hours was not observed | increase | – | 7 of 12 | –
myristoyl-QPNTRLDETE (Myristoyl-QPNTRLDETE) [Scrambled peptide B, reference compound] | – | – | – | – | – | – | – | – | – | – | 23/23
